# In publication PMC4669242 (Bioorganic & medicinal chemistry letters, 2013):
# Key:
# E. coli = assay: Leakage of intracellular β-galactosidase; assay type: cell-based, E. coli (ATCC 25922); details: 1 h of treatment, 37 °C, ONPG, OD405, average of three independent experiments
# [1] = test system: human red blood cells (hRBCs); assay: Hemolysis assay, release of hemoglobin; assay type: cell-based; details: hRBCs in PBS pH 7.4, 1 h, 37 °C, OD405; average of two independent experiments
substance,measurement,setting,value
Melittin,increase in β-galactosidase release as compared to control buffer,E. coli,8 fold
same,concentration inducing hemolysis (lowest concentration tested),[1],≤ 1000 nM
